Where only a bound is given, the exact number is not on record here.

What all share (type): cell-based
The test system of one experiment is Colo-205 cells. Kind of experiment: Calcium flux assay (FLIPR Calcium 5). Conditions: Homo sapiens, COLO 205, 0.6 h, FLIPR Calcium 5, measured over 36 minutes. As for the experimental part:
Compounds described herein induced ER stress by causing intracellular calcium flux. Calcium flux was measured in Colo-205 cells using the FLTPR® Calcium 5 Assay Kit according to manufacter's protocol (Molecular Devices, Cat. #R8186) on a FLIPR3 system (Molecular Devices). Calcium flux is measured over 36 minutes. The Colo-205 calcium flux assay data are summarized in Table 47: A<0.6 μM; 0.6 μM≤B<2.0 μM; 2.0 μM≤C<10.0 μM; D≥10.0 μM.
For orientation: Calcium flux is commonly read through the fluorescence of an indicator in the cells.

The next experiment has as its system HepG2 parental. Kind of experiment: In vitro cell viability (CellTiter-Glo), HepG2 parental. The note with it: Homo sapiens, 96 hours, read-out: HepG2 viability. As for the experimental part:
(§1) HEK293 cells containing empty pCLPCx vector (HEK293 empty), HEK293 cells stably over-expression WFS1 (HEK293 WFS1), HepG2, and HepG2 cells where WFS1 was depleted via CRISPR/Cas9 (HepG2 WFS1 KO) cells were plated into 96-well black plates (Corning, product #3904) in 100 microliters of complete DMEM cell culture media [DMEM (Life Technologies, product #11960-051) media supplemented with 10% FBS (Hyclone, catalog #SH30071.03), antimycotic/antibiotic (Life Technologies, product #15240-062), and Glutamax (Life Technologies, product #35050-061)] at 1,000 (HEK293) or 5,000 (HepG2) cells per well. Cells were allowed to attach and grow overnight, after which compounds are added at various concentrations. Cell viability was assessed 96 hrs after compound addition with CellTiter-Glo reagent (Promega, catalog #G7570) according to manufacturer's protocol and measurement on a Pherastar luminescence plate reader (BMG Labtech).
To determine the effect of WFS1 depletion on compound mediated inhibition of cell viability, parental HepG2 cells and HepG2 cells where WFS1 was deleted by CRISPR/Cas9 were exposed to increasing concentrations of either Compound 136 or Compound 253 for 96 hours after which time viability was determined using Cell Titer Glo reagent (Promega). […] The IC50s for the viability of both the HepG2 parental and WFS1 knockout cells are summarized in Table 47: A<0.5 μM; 0.5 μM≤<2.0 μM; 2.0 μM≤C<10.0 μM; D≥[…].
(In general: Cellular ATP, detected with luciferase, serves as a proxy for viable cell number.)

The test system of another experiment is HepG2 XBP1(u)-Luc cells. Kind of experiment: HepG2 XBP1 reporter assay. Conditions: Homo sapiens, 6 h. The procedure, abridged:
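Reporter cells are HepG2 stably carrying unspliced XBP1 fused to firefly luciferase, which becomes in-frame after IRE1alpha-mediated splicing. SteadyGlo luminescence was normalized to DMSO-treated cells for IC50 calculation.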
Background: In a reporter assay the amount or activity of a reporter protein is the signal.

In experiment [1] the test system is Hek293 WFS1 over-expressor. Briefly: In vitro cell viability (CellTiter-Glo), Hek293 WFS1 over-expressor. The note with it: Homo sapiens, HEK293, Hek293 WFS1 over-expressing cells; read-out: Hek293 WFS1 viability. As for the experimental part: WFS1 cDNA is amplified from clone RC202901 (Origene Technologies) with primers 5′-TCCGCGGCCCCAAGCTTATCGCCATGGACTCCAACACTGC-3′ (SEQ ID NO: 1), 5′-GATGGGCCCAGATCTCGAGTCAGGCCGCCGACAGGAATG-3′ (SEQ ID NO: 2) and cloned into a retroviral mammalian expression vector pCLPCX using HD Infusion (CLONTECH) at Hind3-Xhol sites using standard procedures. The resulting clone is identified as pCLPCX_WFS1.
HEK293 (ATCC, catalog #CRL-1573) cells are plated in 10 cm dishes (Corning, product #430167) into 10 mL of complete DMEM cell culture media [DMEM (Life Technologies, product #11960-051) media supplemented with 10% FBS (Hyclone, catalog #SH30071.03), antimycotic/antibiotic (Life Technologies, product #15240-062), and Glutamax (Life Technologies, product #35050-061)] at 3×10^6 cells per dish. Cells are allowed to attach and grow overnight at 37° C. in humidified 5% CO2. Cells are co-transfected with pVSV-G, pCMV-Gag/Pol and pCLPCX_WFS1 using Fugene 6 (Promega, catalog #E2691) according to manufacturer's protocol. Separately, cells are co-transfected with pVSV-G, pCMV-Gag/Pol and pCLPCX to produce control retrovirus. Cell culture media containing retrovirus (viral supernatant) is collected at 48 and 72 hours following transfection, filtered through a 0.4 uM filter, and stored at −80° C.
HEK293 cells are plated in 6 well plates (Corning, product #3516) in 2 mL of complete DMEM cell culture media at 1×10^5 cells well and allowed to attach and grow overnight at 37° C. in humidified 5% CO2. The following day, the media is replaced with viral supernatant to which 10 ug/ml of Polybrene® (Santa Cruz Biotech, catalog #sc-134220) is added. Viral supernatant is replaced 24 hours later with complete DMEM media. Transduced cells are selected in complete DMEM cell culture media containing 1 microgram/mL of puromycin (Life Technologies, catalog #A1113803).
as §1
The IC50s for the viability of both the Hek293 empty vector and WFS1 over-expressing cells are summarized in Table 47: A<0.06 μM; 0.06 μM≤B<0.6 μM; 0.6 μM≤C<3.0 μM; D≥3.0 μM.

As a reminder, the EC50 is the midpoint of the concentration-response curve. Regarding `Cc1nc(NCc2cnn(CCC3CCOCC3)c2)nc2c1NC(=O)[C@H](C)N2C` [Compound 115, (7S)-4,7,8-trimethyl-2-(((1-(2-(tetrahydro-2H-pyran-4-yl)ethyl)-1H-pyrazol-4-yl)methyl)amino)-7,8-dihydropteridin-6(5H)-one], in the experiment with Colo-205 cells, the 50% effective concentration (EC50) was 2000 to 10000 nM. In addition, the figures for the IC50 (in the experiment with HepG2 parental; in the experiment with HepG2 XBP1(u)-Luc cells; in experiment [1]) were at least 10000 nM, at least 10000 nM and 600 to 3000 nM, respectively.

Consider `Cc1nc(NCc2cnn(Cc3ccc(C(F)(F)F)cc3)c2)nc2c1NC(=O)[C@H](C)N2C` [Compound 149, (7S)-4,7,8-trimethyl-2-(((1-(4-(trifluoromethyl)benzyl)-1H-pyrazol-4-yl)methyl)amino)-7,8-dihydropteridin-6(5H)-one], for which the EC50 in the experiment on Colo-205 cells is below 600 nM. For the same molecule, the values for the IC50 (with HepG2 parental; in the experiment on HepG2 XBP1(u)-Luc cells; in experiment [1]) were below 500 nM, below 600 nM and below 60 nM, respectively.

Consider `Cc1ncc(Cn2cc(CNc3nc(C)c4c(n3)N(C)[C@@H](C(C)C)C(=O)N4)cn2)cc1F` [Compound 425, (7S)-2-(((1-((5-fluoro-6-methylpyridin-3-yl)methyl)-1H-pyrazol-4-yl)methyl)amino)-7-isopropyl-4,8-dimethyl-7,8-dihydropteridin-6(5H)-one], for which the 50% effective concentration (EC50) with Colo-205 cells fell in the range of 600 to 2000 nM. For the same molecule, the IC50 is 500 to 2000 nM in the experiment with HepG2 parental, 600 to 2000 nM in the experiment on HepG2 XBP1(u)-Luc cells and 60 to 600 nM in experiment [1].

On to `Cc1nc(NCc2cnn(Cc3ccc(F)cc3)c2)nc2c1NC(=O)C1(CC1)N2` [Compound 222, 2′-(((1-(4-fluorobenzyl)-1H-pyrazol-4-yl)methyl)amino)-4′-methyl-5′,8′-dihydro-6′H-spiro[cyclopropane-1,7′-pteridin]-6′-one], for which the concentration giving a half-maximal response (EC50) in the experiment on Colo-205 cells was 2000 to 10000 nM. Further, the values for the IC50 (with HepG2 parental; with HepG2 XBP1(u)-Luc cells; in experiment [1]) were at least 10000 nM, at least 10000 nM and at least 3000 nM, respectively.

As for `Cc1nc(NCc2cnn(C[C@H](C)c3ccc(F)cc3)c2)nc2c1NC(=O)[C@H](C)N2C` [Compound 96, (7S)-2-(((1-((R)-2-(4-fluorophenyl)propyl)-1H-pyrazol-4-yl)methyl)amino)-4,7,8-trimethyl-7,8-dihydropteridin-6(5H)-one], the EC50 in the experiment with Colo-205 cells is below 600 nM. For the same molecule, the IC50 in the experiment with HepG2 parental was 2000 to 10000 nM; with HepG2 XBP1(u)-Luc cells, below 600 nM; in experiment [1] it was 60 to 600 nM.

`Cc1nc(N[C@H]2C[C@H](Oc3ccnc(C(F)(F)F)c3)C2)nc2c1NC(=O)[C@H](C)N2C` [Compound 335, (7S)-4,7,8-trimethyl-2-((trans-3-((2-(trifluoromethyl)pyridin-4-yl)oxy)cyclobutyl)amino)-7,8-dihydropteridin-6(5H)-one]: the concentration giving a half-maximal response (EC50) in the experiment with Colo-205 cells lay in the range of 600 to 2000 nM. For the same molecule, the IC50 in the experiment on HepG2 parental was 2000 to 10000 nM; in the experiment with HepG2 XBP1(u)-Luc cells, below 600 nM; in experiment [1], below 60 nM.

Consider `Cc1nc(NCc2cn(Cc3ccc(C(F)(F)F)nc3)nc2Br)nc2c1NC(=O)[C@H](C)N2C` [Compound 412, (S)-2-(((3-bromo-1-((6-(trifluoromethyl)pyridin-3-yl)methyl)-1H-pyrazol-4-yl)methyl)amino)-4,7,8-trimethyl-7,8-dihydropteridin-6(5H)-one], for which the EC50 in the experiment on Colo-205 cells fell in the range of 600 to 2000 nM. Further, the IC50 is 2000 to 10000 nM in the experiment on HepG2 parental, below 600 nM in the experiment on HepG2 XBP1(u)-Luc cells and 60 to 600 nM in experiment [1].

Take `Cc1nc(NCc2cnn(CC(C)(O)c3ccc(F)cc3)c2)nc2c1NC(=O)[C@H](C)N2C` (stereo partly drawn) [Compound 128, (7S)-2-(((1-(2-(4-fluorophenyl)-2-hydroxypropyl)-1H-pyrazol-4-yl)methyl)amino)-4,7,8-trimethyl-7,8-dihydropteridin-6(5H)-one]: in the experiment with Colo-205 cells, the concentration giving a half-maximal response (EC50) lay within 2000 to 10000 nM. For the same molecule, the IC50 with HepG2 parental was 2000 to 10000 nM; with HepG2 XBP1(u)-Luc cells, 2000 to 10000 nM; in experiment [1], 600 to 3000 nM.

Regarding `Cc1nc(N[C@H]2C[C@H](Sc3ccc(F)cc3)C2)nc2c1N(C)C(=O)[C@H](C)N2C` [Compound 307, (7S)-2-((trans-3-((4-fluorophenyl)thio)cyclobutyl)amino)-4,5,7,8-tetramethyl-7,8-dihydropteridin-6(5H)-one], the half-maximal effective concentration (EC50) in the experiment with Colo-205 cells fell in the range of 600 to 2000 nM. Also, the IC50 fell in the range of 2000 to 10000 nM with HepG2 parental, 600 to 2000 nM in the experiment on HepG2 XBP1(u)-Luc cells and 60 to 600 nM in experiment [1].

In the case of `Cc1nc(N[C@H]2C[C@@H](COc3ccc(C(F)(F)F)cn3)C2)nc2c1NC(=O)[C@H](C)N2C` [Compound 356, (7S)-4,7,8-trimethyl-2-((cis-3-(((5-(trifluoromethyl)pyridin-2-yl)oxy)methyl)cyclobutyl)amino)-7,8-dihydropteridin-6(5H)-one], in the experiment with Colo-205 cells, the concentration giving a half-maximal response (EC50) fell in the range of 600 to 2000 nM. Moreover, the values for the IC50 (in the experiment with HepG2 parental; with HepG2 XBP1(u)-Luc cells; in experiment [1]) were at least 10000 nM, below 600 nM and below 60 nM, respectively.

For `Cc1cnc(C(F)(F)F)nc1-n1cc(CNc2ncc3c(n2)N(C)[C@@H](C)C(=O)N3)cn1` [Compound 164, (7S)-7,8-dimethyl-2-(((1-(5-methyl-2-(trifluoromethyl)pyrimidin-4-yl)-1H-pyrazol-4-yl)methyl)amino)-7,8-dihydropteridin-6(5H)-one], the 50% effective concentration (EC50) in the experiment on Colo-205 cells fell in the range of 2000 to 10000 nM. The IC50 with HepG2 parental was at least 10000 nM; in the experiment on HepG2 XBP1(u)-Luc cells it was 2000 to 10000 nM; in experiment [1], 600 to 3000 nM.

On to `Cc1nc(N[C@@H]2CC[C@@H](Oc3cc(F)c(F)c(F)c3)C2)nc2c1N(C)C(=O)[C@H](C)N2C` [Compound 272, (S)-4,5,7,8-tetramethyl-2-(((1R,3R)-3-(3,4,5-trifluorophenoxy)cyclopentyl)amino)-7,8-dihydropteridin-6(5H)-one], for which the EC50 with Colo-205 cells was in the range of 600 to 2000 nM. Also, the figures for the IC50 (with HepG2 parental; in experiment [1]) were below 500 nM and below 60 nM, respectively.

As to `Cc1nc(N[C@H]2C[C@H](COc3cc(F)c(F)c(F)c3)C2)nc2c1NC(=O)[C@H](C)N2C` [Compound 258, (7S)-4,7,8-trimethyl-2-((trans-3-((3,4,5-trifluorophenoxy)methyl)-cyclobutyl)amino)-7,8-dihydropteridin-6(5H)-one], the EC50 with Colo-205 cells fell in the range of 600 to 2000 nM. In addition, the IC50 was in the range of 2000 to 10000 nM with HepG2 parental and 60 to 600 nM in experiment [1].

As for `Cc1nc(N[C@H]2C[C@@H](COc3cc(F)c(F)c(F)c3)C2)nc2c1NC(=O)[C@H](C)N2C` [Compound 257, (7S)-4,7,8-Trimethyl-2-((cis-3-((3,4,5-trifluorophenoxy)methyl)cyclobutyl)-amino)-7,8-dihydropteridin-6(5H)-one], the EC50 with Colo-205 cells lay within 600 to 2000 nM. Moreover, the IC50 with HepG2 parental is 2000 to 10000 nM; in experiment [1] it was below 60 nM.

As for `Cc1nc(NCc2cnn(Cc3ccc(F)cc3)c2)nc2c1NC(=O)[C@H](C)N2C` [Compound 4, (7S)-2-(((1-(4-fluorobenzyl)-1H-pyrazol-4-yl)methyl)amino)-4,7,8-trimethyl-7,8-dihydropteridin-6(5H)-one], the concentration giving a half-maximal response (EC50) in the experiment on Colo-205 cells was below 600 nM. Also, the IC50 with HepG2 parental is 2000 to 10000 nM; in experiment [1], below 60 nM.

The record behind these values is US20230312587A1, “PTERIDINONE COMPOUNDS AND USES THEREOF” (Vertex Pharmaceutical Incorporated, priority 2018, published 2023).
